This is an account of results in patent publication US9115120B2, “Heterocyclic modulators of HIF activity for treatment of disease” (Board of Regents, The University of Texas System, priority 2012, dated 2015).

Each structure is given as a SMILES string. Where a name gives a salt, the structure may show the parent alone.

The test relates to 293T-HRE-GFP-luc cells. The experiment in a line: Cell-Based Reporter Assay for IC50 Determinations. Particulars: 30 min normoxia then 6 hrs hypoxia (1% O2), luminescence, four-parameter logistic fit, read-out: Activity (IC50, HRE luciferase reporter). The protocol: Cell-Based Reporter Assay for IC50 Determinations
293T-HRE-GFP-luc cells were routinely maintained in DMEM media (high glucose version with GlutaMAX and HEPES, Gibco, catalog #10564) supplemented with 10% fetal bovine serum and 2 μg/mL puromycin (Invitrogen, catalog #A11138-03) using a humidified incubator (normoxia conditions consisting of 37° C., 5% CO2 and ambient O2).
In preparation for the reporter assay, cells were harvested and resuspended in DMEM media (high glucose version with GlutaMAX and HEPES) supplemented with 10% fetal bovine serum. Cells were inoculated into 384-well white Culturplates (Perkin Elmer catalog #6007680) at a density of 12,000 cells/well in a volume of […]. The microplates were incubated overnight (approximately 17-19 hours) at 37° C. with 5% CO2 and ambient O2. Stock solutions of the test compounds were prepared in DMSO (Sigma, Catalog #D2650) and serially diluted 1:3 using DMSO. Compounds were additionally diluted (1:50) with culturemedium and 10 µL were added per well to the Culturplate. Following a 30 min. incubation under normoxia conditions, the plates were incubated in hypoxia for 6 hrs. (37° C., 5% CO2 and 1% O2). Steadylite Plus (Perkin Elmer, catalog #6016751) was then added ([…]), the plates were mixed on an orbital shaker at room temperature in the dark for 15 min., and luminescence was measured using an Envision plate reader (Perkin Elmer). IC50 values were calculated using a four-parameter logistic curve fit. Results are shown below in Table 2; ND indicates no data.

`Cc1nc(-c2nc(-c3ccccc3)co2)sc1Cc1cccc(N2CCN(C)CC2)c1` [Example 3, 2-(4-Methyl-5-(3-(4-methylpiperazin-1-yl)benzyl)thiazol-2-yl)-4-phenyloxazole]: the IC50 fell in the range of 1 to 10 µM.
To `Cn1cc(-c2nc(-c3ccc(OC(F)(F)F)cc3)no2)nc1Cc1ccnc(N2CCNCC2)c1` [Example 12, 4-(4-((1-methyl-4-(3-(4-(trifluoro-methoxy)phenyl)-1,2,4-oxadiazol-5-yl)-1H-imidazol-2-yl)methyl)pyridin-2-yl)piperazin-1-ium formate] belongs 1 to 10 µM; to `Cc1oc(-c2nc(-c3ccc(OC(F)(F)F)cc3)no2)nc1Cc1cccc(Br)c1` [Example 4, 5-(4-(3-Bromobenzyl)-5-methyloxazol-2-yl)-3-(4-(trifluoromethoxy)phenyl)-1,2,4-oxadiazole], 1 to 10 µM.
`Cc1oc(-c2nc(-c3ccc(OC(F)(F)F)cc3)no2)nc1Cc1cccc(N2CCCCC2)c1` [Example 13]: the IC50 is less than 0.1 µM.
Take `CN1CCN(c2cc(Cc3nc(-c4nc(-c5ccc(OC(F)(F)F)cc5)no4)cn3C)ccn2)CC1` [Example 10, 5-(1-Methyl-2-((2-(4-methylpiperazin-1-yl)pyridin-4-yl)methyl)-1H-imidazol-4-yl)-3-(4-(trifluoromethoxy)phenyl)-1,2,4-oxadiazole]: the half-maximal inhibitory concentration (IC50) is less than 0.1 µM.
As to `Cc1oc(-c2nc(-c3ccc(OC(F)(F)F)cc3)no2)nc1Cc1cccc(N2CCOCC2)c1` [Example 11, 4-(3-((5-Methyl-2-(3-(4-(trifluoromethoxy)phenyl)-1,2,4-oxadiazol-5-yl)oxazol-4-yl)methyl)phenyl)morpholine], the IC50 was less than 0.1 µM.
Under `Cc1oc(-c2nc(-c3ccc(OC(F)(F)F)cc3)no2)nc1Cc1cccc(N(C)C)c1` [Example 14, N,N-dimethyl-3-((5-methyl-2-(3-(4-(trifluoromethoxy)phenyl)-1,2,4-oxadiazol-5-yl)oxazol-4-yl)methyl)aniline] stands less than 0.1 µM; under `Cc1oc(-c2nc(-c3ccc(OC(F)(F)F)cc3)no2)nc1Cc1cccc(N2CCN(C)CC2)c1` [Example 5, 1-methyl-4-(3-((5-methyl-2-(3-(4-(trifluoromethoxy)phenyl)-1,2,4-oxadiazol-5-yl)oxazol-4-yl)methyl)phenyl)piperazin-1-ium trifluoroacetate], less than 0.1 µM.
To `Cc1nc(-c2nc(-c3ccc(OC(F)(F)F)cc3)no2)oc1Cc1cccc(N2CCN(C)CC2)c1` [Example 7, 1-Methyl-4-(3-((4-methyl-2-(3-(4-(trifluoromethoxy)phenyl)-1,2,4-oxadiazol-5-yl)oxazol-5-yl)methyl)phenyl)piperazin-1-ium trifluoroacetate] belongs less than 0.1 µM.
To `CN1CCN(c2cc(Cc3nc(-c4nc(-c5ccc(OC(F)(F)F)cc5)no4)nn3C)ccn2)CC1` [Example 9, 1-Methyl-4-(4-((1-methyl-3-(3-(4-(trifluoromethoxy)phenyl)-1,2,4-oxadiazol-5-yl)-1H-1,2,4-triazol-5-yl)methyl)pyridin-2-yl)piperazin-1-ium formate] belongs less than 0.1 µM; to `Cc1nc(-c2nc(-c3ccc(OC(F)(F)F)cc3)no2)sc1Cc1cccc(N2CCN(C)CC2)c1` [Example 2, 5-(4-Methyl-5-(3-(4-methylpiperazin-1-yl)benzyl)thiazol-2-yl)-3-(4-(trifluoromethoxy)phenyl)-1,2,4-oxadiazole], less than 0.1 µM.
For the compound `Cc1nc(-c2nc(-c3ccc(OC(F)(F)F)cc3)no2)oc1Cc1cccc(Br)c1` [Example 1, 5-(5-(3-Bromobenzyl)-4-methyloxazol-2-yl)-3-(4-(trifluoromethoxy)phenyl)-1,2,4-oxadiazole], the concentration for half-maximal inhibition (IC50) was in the range of 1 to 10 µM.
To `Cc1sc(-c2nc(-c3ccc(OC(F)(F)F)cc3)no2)nc1Cc1cccc(N2CCN(C)CC2)c1` [Example 6, 1-methyl-4-(3-((5-methyl-2-(3-(4-(trifluoromethoxy)phenyl)-1,2,4-oxadiazol-5-yl)thiazol-4-yl)methyl)phenyl)piperazin-1-ium trifluoroacetate] belongs less than 0.1 µM; to `Cn1nc(-c2nc(-c3ccc(OC(F)(F)F)cc3)no2)nc1Cc1ccnc(N2CCNCC2)c1` [Example 8, 4-(4-((1-Methyl-3-(3-(4-(trifluoromethoxy)phenyl)-1,2,4-oxadiazol-5-yl)-1H-1,2,4-triazol-5-yl)methyl)pyridin-2-yl)piperazin-1-ium formate], less than 0.1 µM.

In general, IC50 refers to the concentration that gives 50% inhibition.
